pIC50: −log10 of the molar value. Counter-ions that a name gives are not always drawn.

The subject of this experiment is LP-1 cell line. The experiment in a line: Cell-based pERK ELISA method, LP-1 cells. The note with it: Homo sapiens, LP-1, read-out: IC50 less than 1 μM or at least 50% inhibition at a concentration of 1 μM, LP-1 pERK ELISA.
On to `CC(=O)Nc1cccc(-c2cnc3ccc(-c4csc5ccccc45)cn23)c1` [Example 103, N-[3-(6-Benzo[b]thiophen-3-yl-imidazo[1,2-a]pyridin-3-yl)-phenyl]-acetamide], for which the pIC50 is greater than 6.00.
The result for `CC(=O)Nc1cccc(-c2cnc3ccc(-c4ccoc4)cn23)c1` [Example 104, N-[3-(6-Furan-3-yl-imidazo[1,2-a]pyridin-3-yl)-phenyl]-acetamide] reads greater than 6.00; that for `O=C(NCC(F)(F)F)Nc1cccc(-c2cnc3cc(N4CCOCC4)ccn23)c1` [Example 108, 1-[3-(7-Morpholin-4-yl-imidazo[1,2-a]pyridin-3-yl)-phenyl]-3-(2,2,2-trifluoro-ethyl)-urea hydrochloride salt], greater than 6.00.
The result for `CCNC(=O)Nc1cccc(-c2cnc3cc(-c4ccc(NCCN5CCOCC5)nc4)ccn23)c1` [Example 109, 1-Ethyl-3-(3-{7-[6-(2-morpholin-4-yl-ethylamino)-pyridin-3-yl]-imidazo[1,2-a]pyridin-3-yl}-phenyl)-urea hydro-chloride salt] reads greater than 6.00.
The value for `CCNC(=O)Nc1cccc(-c2cnn3cc(-c4ccc(F)cc4)cnc23)c1` [Example 111, 1-Ethyl-3-{3-[6-(4-fluoro-phenyl)-pyrazolo[1,5-a]pyrimidin-3-yl]-phenyl}-urea] was greater than 6.00; that for `Nc1ccc(-c2cnc3c(-c4cccc(NC(=O)NCC(F)(F)F)c4)cnn3c2)cn1` [Example 113, 1-{3-[6-(6-Amino-pyridin-3-yl)-pyrazolo[1,5-a]pyrimidin-3-yl]-phenyl}-3-(2,2,2-trifluoro-ethyl)-urea hydrochloride salt] was greater than 6.00; that for `CCNC(=O)Nc1cccc(-c2cnn3cc(-c4ccc(N)nc4)cnc23)c1` [Example 114, 1-{3-[6-(6-Amino-pyridin-3-yl)-pyrazolo[1,5-a]pyrimidin-3-yl]-phenyl}-3-ethyl-urea hydrochloride salt] was greater than 6.00.
Take `CCNC(=O)Nc1cccc(-c2cnc3cc(-c4ccsc4)ccn23)c1` [Example 115, 1-Ethyl-3-[3-(7-thiophen-3-yl-imidazo[1,2-a]pyridine-3-yl)-phenyl]-urea formate salt]: the pIC50 was greater than 6.00.
The value for `O=C(NCC(F)(F)F)Nc1cccc(-c2cnn3cc(-c4ccc(F)cc4)cnc23)c1` [Example 123, 1-{3-[6-(4-Fluoro-phenyl)-pyrazolo[1,5-a]pyrimidin-3-yl]-phenyl}-3-(2,2,2-trifluoro-ethyl)-urea] was greater than 6.00; that for `Cn1cc(-c2cnc3c(-c4cccc(NC(=O)NCC(F)(F)F)c4)cnn3c2)cn1` [Example 127, 1-{3-[6-(1-Methyl-1H-pyrazol-4-yl)-pyrazolo[1,5-a]pyrimidin-3-yl]-phenyl}-3-(2,2,2-trifluoro-ethyl)-urea] was greater than 6.00; that for `Cn1cc(-c2ccn3c(-c4cccc(NC(=O)NCC(F)(F)F)c4)cnc3c2)cn1` [Example 128, 1-{3-[7-(1-Methyl-1H-pyrazol-4-yl)-imidazo[1,2-a]pyridin-3-yl]-phenyl}-3-(2,2,2-trifluoro-ethyl)-urea formate] was greater than 6.00.
Turning to `O=C(NCCF)Nc1cccc(-c2cnc3cc(-c4ccc(F)cc4)ccn23)c1` [Example 134, 1-(2-Fluoro-ethyl)-3-{3-[7-(4-fluoro-phenyl)-imidazo[1,2-a]pyridin-3-yl]-phenyl}-urea Hydrochloride], the pIC50 is greater than 6.00.
The value for `CCNC(=O)Nc1cccc(-c2cnn3cc(-c4cnn(C)c4)cnc23)c1` [Example 135, 1-Ethyl-3-{3-[6-(1-methyl-1H-pyrazol-4-yl)-pyrazolo[1,5-a]pyrimidin-3-yl]-phenyl}-urea] was greater than 6.00; that for `O=C(NCCF)Nc1cccc(-c2cnn3cc(-c4ccc(F)cc4)cnc23)c1` [Example 140, 1-(2-Fluoro-ethyl)-3-{3-[6-(4-fluoro-phenyl)-pyrazolo[1,5-a]pyrimidin-3-yl]-phenyl}-urea] was greater than 6.00.
The result for `O=C(NCC(F)(F)F)Nc1cccc(-c2cnc3cc(-c4ccc5c(c4)OCO5)ccn23)c1` [Example 141, Hydrochloride] reads greater than 6.00.

Source of the values: patent US8895745B2, “Bicyclic heterocyclic compounds as FGFR inhibitors” (Astex Therapeutics Limited, priority 2006, dated 2014).
